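Five compound concentrations were applied to cells in 96-well plates for 48 hours; endpoints were derived by simple linear interpolation of the resulting dose-response curve. Abbreviation: GI50, concentration required for 50% inhibition of growth.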 Activity calls are given as the source filed them. Cut-off read from the data, not from the text of the source: active = GI50 up to about 1.1 µM and inactive = higher.
Tests used:
Assay in all cases: growth of human tumour cells (NCI), 48 h
786-0 = test system: 786-0
A549 = test system: A549
CCRF-CEM = test system: CCRF-CEM
HCC 2998 = test system: HCC 2998
HL-60 = test system: HL-60
IGROV-1 = test system: IGROV-1
LOX IMVI = test system: LOX IMVI
NCI-H23 = test system: NCI-H23
NCI-H460 = test system: NCI-H460
SF-268 = test system: SF-268
SF-539 = test system: SF-539
SK-MEL-28 = test system: SK-MEL-28
SR = test system: SR
SW-620 = test system: SW-620
OVCAR-4 = test system: OVCAR-4
OVCAR-5 = test system: OVCAR-5
SK-MEL-2 = test system: SK-MEL-2
SNB-75 = test system: SNB-75
CAKI-1 = test system: CAKI-1

Measured: GI50

CCCCc1c2c(nc3c1CCCC3=O)CCCC2
inactive: 786-0 > 100 µM | A549 > 100 µM | CCRF-CEM > 100 µM | HCC 2998 > 100 µM | HL-60 > 100 µM | IGROV-1 > 100 µM | LOX IMVI > 100 µM | NCI-H23 > 100 µM | NCI-H460 > 100 µM | SF-268 > 100 µM | SF-539 > 100 µM | SK-MEL-28 > 100 µM | SR 41.4 µM | SW-620 > 100 µM

C#CCCCCC#CC1CCCC1C1=CC(=O)c2ccccc21 (stereo not given)
inactive: A549 13.5 µM | CCRF-CEM 1.5 µM | HCC 2998 12.6 µM | HL-60 1.33 µM | IGROV-1 6 µM | LOX IMVI 3.22 µM | NCI-H23 10.6 µM | NCI-H460 15.3 µM | OVCAR-4 10.3 µM | OVCAR-5 11.5 µM | SF-268 3.32 µM | SF-539 8.93 µM | SK-MEL-28 5.18 µM | SK-MEL-2 11.2 µM | SNB-75 5.45 µM | SR 2.79 µM | SW-620 2.28 µM

COC(=O)C12CC(c3ccccc31)C1C(=O)OC(=O)C12 (stereo not given)
inactive: 786-0 > 100 µM | A549 > 100 µM | CCRF-CEM > 100 µM | HCC 2998 > 100 µM | HL-60 > 100 µM | IGROV-1 > 100 µM | LOX IMVI > 100 µM | NCI-H23 > 100 µM | NCI-H460 > 100 µM | OVCAR-4 > 100 µM | OVCAR-5 > 100 µM | SF-268 > 100 µM | SF-539 > 100 µM | SK-MEL-28 > 100 µM | SK-MEL-2 > 100 µM | SNB-75 17.5 µM | SW-620 > 100 µM

O=P1(Oc2ccc(Cl)cc2Cl)Oc2cc3ccccc3cc2O1
inactive: A549 66.2 µM | CAKI-1 > 71.8 µM | CCRF-CEM 35.5 µM | HCC 2998 20.8 µM | HL-60 21.5 µM | IGROV-1 64.7 µM | LOX IMVI 68.9 µM | NCI-H23 43.9 µM | NCI-H460 49.9 µM | OVCAR-4 76 µM | OVCAR-5 > 100 µM | SF-268 > 100 µM | SF-539 > 84.9 µM | SK-MEL-28 > 100 µM | SK-MEL-2 81.1 µM | SNB-75 70.8 µM | SW-620 70.1 µM

CN(C)c1ccc(/C=C/C(=O)O)cc1
inactive: A549 > 100 µM | CAKI-1 > 100 µM | CCRF-CEM > 100 µM | HCC 2998 > 100 µM | HL-60 > 100 µM | IGROV-1 > 100 µM | LOX IMVI > 100 µM | NCI-H460 > 100 µM | OVCAR-5 > 100 µM | SF-268 > 100 µM | SF-539 > 100 µM | SK-MEL-2 > 100 µM | SNB-75 > 100 µM | SW-620 > 100 µM

Cc1cc(NS(=O)(=O)c2ccc(NC(=O)c3cccc4cc5ccccc5nc34)cc2)no1
inactive: 786-0 16.7 µM | A549 22 µM | CAKI-1 21.9 µM | CCRF-CEM 16 µM | IGROV-1 15.8 µM | LOX IMVI > 10 µM | NCI-H23 17.2 µM | NCI-H460 18.3 µM | OVCAR-4 18.3 µM | OVCAR-5 23.2 µM | SF-268 12.9 µM | SF-539 11.6 µM | SK-MEL-28 8.36 µM | SK-MEL-2 18.7 µM | SNB-75 17.6 µM | SW-620 25.3 µM

CCOC(=O)C(N=C(c1ccccc1)c1ccccc1)N(C(=O)OC(C)(C)C)C(=O)OC(C)(C)C (stereo not given)
inactive: 786-0 > 100 µM | A549 > 100 µM | CAKI-1 > 100 µM | HCC 2998 > 100 µM | IGROV-1 > 100 µM | NCI-H23 > 100 µM | OVCAR-4 > 100 µM | OVCAR-5 > 100 µM | SF-268 > 100 µM | SF-539 > 100 µM | SK-MEL-28 > 100 µM | SK-MEL-2 > 100 µM | SNB-75 82 µM | SR 69.3 µM | SW-620 > 100 µM

C=C(C(=C)P(=S)(c1ccccc1)c1ccccc1)P(=S)(c1ccccc1)c1ccccc1
inactive: 786-0 > 100 µM | A549 > 100 µM | CAKI-1 > 100 µM | CCRF-CEM > 100 µM | HCC 2998 > 100 µM | HL-60 7.33 µM | IGROV-1 > 100 µM | NCI-H23 > 100 µM | NCI-H460 > 100 µM | OVCAR-4 34.8 µM | OVCAR-5 > 100 µM | SF-268 > 100 µM | SF-539 > 100 µM | SK-MEL-28 > 100 µM | SK-MEL-2 > 100 µM | SNB-75 45.5 µM | SW-620 > 100 µM

COc1cc2c(cc1OC)C(Cl)C(c1ccc(Cl)cc1)=C2Cl (stereo not given)
inactive: CAKI-1 17.3 µM | CCRF-CEM 6.15 µM | HL-60 11.4 µM | IGROV-1 19.3 µM | LOX IMVI 12.1 µM | NCI-H23 14.2 µM | NCI-H460 13.5 µM | SF-268 > 10 µM | SF-539 17.1 µM | SK-MEL-28 19.1 µM | SK-MEL-2 16 µM | SNB-75 19.1 µM | SW-620 18.7 µM
